Results from US9708336B2, “Metallo-beta-lactamase inhibitors” (priority 2014, dated 2017).
pIC50: −log10 of the molar value. Where two headings read alike, the source gives them in different places.

Key:
VIM-1 = VIM-1 (Pseudomonas aeruginosa (strain ATCC 15692 / DSM 22644 / CIP 104116 / JCM 14847 / LMG 12228 / 1C / PRS 101 / PAO1), UniProt A0A0F7KYQ8); assay: Enzyme activity: determination of IC50, fluorescence assay with CCF2-FA substrate (VIM-1); type: biochemical
IMP-1 = IMP-1 (Serratia marcescens, UniProt P52699); assay: biochemical; type: biochemical; settings: read-out: IMP-1 IC50
IMP-1, sequence (P52699 whole entry, looked up): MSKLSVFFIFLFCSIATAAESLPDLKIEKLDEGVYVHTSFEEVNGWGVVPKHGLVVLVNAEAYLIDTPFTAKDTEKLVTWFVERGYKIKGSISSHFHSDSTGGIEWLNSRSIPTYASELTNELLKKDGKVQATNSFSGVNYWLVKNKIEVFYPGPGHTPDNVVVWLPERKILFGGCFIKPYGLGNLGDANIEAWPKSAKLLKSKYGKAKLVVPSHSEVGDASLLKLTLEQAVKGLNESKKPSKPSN

NDM-1 = NDM-1 (Klebsiella pneumoniae, UniProt C7C422); assay: biochemical; type: biochemical; settings: read-out: NDM-1 IC50
NDM-1, sequence (C7C422 whole entry, looked up, species assumed): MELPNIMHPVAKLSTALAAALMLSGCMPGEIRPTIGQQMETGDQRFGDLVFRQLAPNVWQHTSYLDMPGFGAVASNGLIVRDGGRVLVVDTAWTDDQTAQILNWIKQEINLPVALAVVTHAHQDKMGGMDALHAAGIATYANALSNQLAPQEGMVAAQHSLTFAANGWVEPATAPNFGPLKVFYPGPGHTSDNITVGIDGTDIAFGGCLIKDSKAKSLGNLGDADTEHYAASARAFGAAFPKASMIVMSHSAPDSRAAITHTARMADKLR

[1] = test system: Escherichia coli expressing NDM-1 (CLB30016); assay: Antibiotic potentiation activity: synergistic concentration (MITC95) with imipenem, OD600 growth; type: cell-based; settings: for Escherichia coli MITC95: 95% growth inhibition; for Escherichia coli expressing NDM-1 (CLB 30016) MITC95: concentration giving 95% inhibition of bacterial growth
Outline: (§1)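 Clinical MBL-producing strains (E. coli NDM-1, S. marcescens IMP-1, K. pneumoniae VIM-1) from overnight plates were diluted 1:100 into 1.1×CAMHB. Compound was tested with imipenem at 4 μg/ml (optionally 1 μg/ml) or without it. After 22–24 h at 35 °C, growth was read as OD600.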

[2] = test system: Serratia marcescens expressing IMP-1 (CL5741); assay: as above; type: cell-based; settings: for Serratia marcescens MITC95: 95% growth inhibition; for Serratia marcescens expressing IMP-1 (CL5741) MITC95: concentration giving 95% inhibition of bacterial growth
Outline: as §1

[3] = test system: Klebsiella pneumoniae expressing VIM-1 (IHMA599644); assay: as above; type: cell-based; settings: for Klebsiella pneumoniae MITC95: 95% growth inhibition; for Klebsiella pneumoniae expressing VIM-1 (IHMA 599644) MITC95: concentration giving 95% inhibition of bacterial growth
Outline: as §1

[4] = VIM-1 enzyme, CCF2-FA fluorescence assay, read-out: VIM-1 IC50
[5] = IMP-1 enzyme, CCF2-FA fluorescence assay
[6] = NDM-1 enzyme, CCF2-FA fluorescence assay
[7] = Escherichia coli expressing NDM-1 (CLB30016)
[8] = Serratia marcescens expressing IMP-1 (CL5741)
[9] = Klebsiella pneumoniae expressing VIM-1 (IHMA599644)
[10] = VIM-1 IC50, VIM-1 enzyme, CCF2-FA substrate
[11] = IMP-1 enzyme, CCF2-FA substrate
[12] = NDM-1 enzyme, CCF2-FA substrate
[13] = Serratia marcescens CL5741 (IMP-1)
[14] = Klebsiella pneumoniae IHMA599644 (VIM-1)
[15] = fluorescence assay with CCF2-FA substrate, read-out: VIM-1 IC50
[16] = fluorescence assay with CCF2-FA substrate
[17] = VIM-1 enzyme, CCF2-FA substrate, read-out: VIM-1 IC50

Compound | pIC50 (IMP-1; [11]) | pIC50 (NDM-1; [12]) | Escherichia coli MITC95 ([1]; (CLB30016, NDM-1)) | Serratia marcescens MITC95 [2, 13] | Klebsiella pneumoniae MITC95 [3, 14] | pIC50 (VIM-1; [17]) | also measured
NS(=O)(=O)c1cccc(-c2snc3ncccc23)c1-c1nnn[nH]1 [Example 413, 3-isothiazolo[3,4-b]pyridin-3-yl-2-(1H-tetrazol-5-yl)benzenesulfonamide] | – | – | – | – | – | – | pIC50 (VIM-1; [4]): 8.68; pIC50 (IMP-1; [5]): 6.47; pIC50 (NDM-1; [6]): 8.67; Escherichia coli MITC95 [1, 7]: 0.5859 µM; Serratia marcescens MITC95 [2, 8]: 9.375 µM; Klebsiella pneumoniae MITC95 [3, 9]: 4.688 µM
NS(=O)(=O)c1cccc(-c2ccc(C3=CCNC3)cc2)c1-c1nn[nH]n1 [Example 285, 4′-(2,5-dihydro-1H-pyrrol-3-yl)-2-(2H-tetrazol-5-yl)-[1,1′-biphenyl]-3-sulfonamide] | – | – | – | – | – | – | pIC50 (VIM-1; [4]): 7.74; pIC50 (IMP-1; [5]): 7.60; pIC50 (NDM-1; [6]): 8.55; Escherichia coli MITC95 [1, 7]: 0.3906 µM; Serratia marcescens MITC95 [2, 8]: 0.7813 µM; Klebsiella pneumoniae MITC95 [3, 9]: 3.125 µM
NS(=O)(=O)c1c(C(F)(F)F)ccc([C@H]2CC[C@H](NC3CCCNC3)CC2)c1-c1nnn[nH]1 (stereo partly drawn) [Example 697, 3-[4-(piperidin-3-ylamino)cyclohexyl]-2-(1H-tetrazol-5-yl)-6-(trifluoromethyl)benzene sulfonamide] | 8.19 | 8.79 | 0.7813 µM | 3.125 µM | 6.25 µM | – | pIC50 (VIM-1; [10]): 8.20
NS(=O)(=O)c1nccc(NC2CCCCC2)c1-c1nnn[nH]1 [Example 234, 4-(cyclohexylamino)-3-(1H-tetrazol-5-yl)pyridine-2-sulfonamide] | – | – | – | – | – | – | pIC50 (VIM-1; [15]): 5.93; pIC50 (IMP-1; [16]): 5.84; pIC50 (NDM-1; [16]): 7.61; Escherichia coli expressing NDM-1 (CLB 30016) MITC95 [1]: 4.688 µM; Serratia marcescens expressing IMP-1 (CL5741) MITC95 [2]: 100 µM; Klebsiella pneumoniae expressing VIM-1 (IHMA 599644) MITC95 [3]: >200 µM
NS(=O)(=O)c1c(CC2CCNCC2)ccc(-c2ccc(C3CCNCC3)cc2)c1-c1nn[nH]n1 [Example 456, 4′-(piperidin-4-yl)-4-(piperidin-4-ylmethyl)-2-(2H-tetrazol-5-yl)-[1,1′-biphenyl]-3-sulfonamide] | – | – | – | – | – | – | pIC50 (VIM-1; [4]): 8.46; pIC50 (IMP-1; [5]): 8.01; pIC50 (NDM-1; [6]): 8.34; Escherichia coli MITC95 [1, 7]: 0.5859 µM; Serratia marcescens MITC95 [2, 8]: 0.5859 µM; Klebsiella pneumoniae MITC95 [3, 9]: 1.172 µM
NS(=O)(=O)c1c(C(F)(F)F)ccc(-c2snc3ncccc23)c1-c1nnn[nH]1 [Example 709, 3-isothiazolo[3,4-b]pyridin-3-yl-2-(1H-tetrazol-5-yl)-6-(trifluoromethyl)benzenesulfon-amide] | 7.79 | 8.18 | 6.25 µM | 25 µM | 6.25 µM | 9.54 | –
NS(=O)(=O)c1c(CC[C@H]2CC[C@@H](N)CC2)ccc(-c2ccc(C3CCNC3)cc2)c1-c1nnn[nH]1 (stereo partly drawn) [Example 585, 4-(2-((1s,4r)-4-aminocyclohexyl)ethyl)-4′-(pyrrolidin-3-yl)-2-(1H-tetrazol-5-yl)-[1,1′-biphenyl]-3-sulfonamide] | 7.77 | 8.66 | 0.7813 µM | 3.125 µM | 6.25 µM | 8.34 | –
Nc1[nH]nc2cc(-c3cccc(S(N)(=O)=O)c3-c3nnn[nH]3)ccc12 [Example 131, 3-(3-amino-2H-indazol-6-yl)-2-(1H-tetrazol-5-yl)benzenesulfonamide] | – | – | – | – | – | – | pIC50 (VIM-1; [15]): 7.77; pIC50 (IMP-1; [16]): 6.73; pIC50 (NDM-1; [16]): 9.15; Escherichia coli expressing NDM-1 (CLB 30016) MITC95 [1]: 0.7813 µM; Serratia marcescens expressing IMP-1 (CL5741) MITC95 [2]: 3.125 µM; Klebsiella pneumoniae expressing VIM-1 (IHMA 599644) MITC95 [3]: 3.125 µM
NCC1CCC(N[C@H]2CC[C@H](c3ccc(C(F)(F)F)c(S(N)(=O)=O)c3-c3nnn[nH]3)CC2)CC1 (stereo partly drawn) [Example 699, 3-(4-{[4-(aminomethyl)cyclohexyl]amino}cyclohexyl)-2-(1H-tetrazol-5-yl)-6-(trifluoromethyl)benzene sulfonamide] | 7.23 | 7.74 | 3.125 µM | 6.25 µM | 6.25 µM | 8.33 | –
NC[C@H]1CC[C@H](c2ccc(CC3CCNCC3)c(S(N)(=O)=O)c2-c2nn[nH]n2)CC1 [Example 589, 3-((1r,4r)-4-(aminomethyl)cyclohexyl)-6-(piperidin-4-ylmethyl)-2-(2H-tetrazol-5-yl)benzenesulfonamide] | 6.83 | 8.06 | 1.172 µM | 4.688 µM | 9.375 µM | 7.03 | –
Nc1nc2cc(-c3ccc(C(F)(F)F)c(S(N)(=O)=O)c3-c3nnn[nH]3)ccc2s1 [Example 550, 3-(2-amino-1,3-benzothiazol-5-yl)-2-(1H-tetrazol-5-yl)-6-(trifluoromethyl)benzenesulfonamide] | 8.60 | 9.12 | 3.125 µM | 3.125 µM | 12.5 µM | 9.50 | –
NS(=O)(=O)c1c(C(F)(F)F)ccc(-c2ccc(C3CCN(C[C@@H]4CCCN4)CC3)cc2)c1-c1nnn[nH]1 [Example 669, 4′-{1-[(2S)-pyrrolidin-2-ylmethyl]piperidin-4-yl}-2-(1H-tetrazol-5-yl)-4-(trifluoromethyl)biphenyl-3-sulfonamide] | 9.16 | 8.41 | 2.344 µM | 2.344 µM | >200 µM | – | pIC50 (VIM-1; [10]): 8.05
NS(=O)(=O)c1c(C(F)(F)F)ccc(-c2ccc3c(c2)CNC3)c1-c1nnn[nH]1 [Example 715, 3-(2,3-dihydro-1H-isoindol-5-yl)-2-(1H-tetrazol-5-yl)-6-(trifluoromethyl)benzenesulfon-amide] | 7.56 | 7.60 | 6.25 µM | 12.5 µM | 3.125 µM | 9.14 | –
Nc1ncc(-c2ccc(-c3cccc4sc(N)nc34)c(-c3nn[nH]n3)c2S(N)(=O)=O)s1 [Example 536, 3-(2-Aminobenzo[d]thiazol-4-yl)-6-(2-aminothiazol-5-yl)-2-(2H-tetrazol-5-yl)benzenesulfonamide] | 7.40 | 8.57 | 6.25 µM | 50 µM | 25 µM | 8.38 | –
CC(C)c1cccc(S(N)(=O)=O)c1-c1nnn[nH]1 [Example 156, 3-isopropyl-2-(1H-tetrazol-5-yl)benzenesulfonamide] | – | – | – | – | – | – | pIC50 (VIM-1; [15]): 6.41; pIC50 (IMP-1; [16]): 6.29; pIC50 (NDM-1; [16]): 7.88; Escherichia coli expressing NDM-1 (CLB 30016) MITC95 [1]: 0.5859 µM; Serratia marcescens expressing IMP-1 (CL5741) MITC95 [2]: 9.375 µM; Klebsiella pneumoniae expressing VIM-1 (IHMA 599644) MITC95 [3]: 50 µM
Nc1nc2ccc(-c3cccc(S(N)(=O)=O)c3-c3nnn[nH]3)cc2s1 [Example 417, 3-(2-amino-1,3-benzothiazol-6-yl)-2-(1H-tetrazol-5-yl)benzenesulfonamide] | – | – | – | – | – | – | pIC50 (VIM-1; [4]): 8.07; pIC50 (IMP-1; [5]): 7.30; pIC50 (NDM-1; [6]): 9.12; Escherichia coli MITC95 [1, 7]: 1.953 µM; Serratia marcescens MITC95 [2, 8]: 2.344 µM; Klebsiella pneumoniae MITC95 [3, 9]: 9.375 µM
